# Laboratory results published in patent publication US9044389B2, “Isoxazoline derivatives as pesticides” (Novartis AG, priority 2008, dated 2015).
# Tested on: Rhipicephalus sanguineus nymphs
# Assay: Activity in vivo against Rhipicephalus sanguineus nymphs on Mongolian gerbils (spray application)
# Conditions: tick number reduction vs placebo, Abbot's formula
# Protocol: On day 0, gerbils are treated with the test compound at a given dose by spray application. On day +1 (+2), the animals are infested with nymphs of R. sanguineus. Ticks are left on the animals until full repletion. Seven days after infestation nymphs dropped off fully engorged are collected and counted. Efficacy in killing is expressed as a tick number reduction in comparison with a placebo treated group, using the Abbot's formula.
structure (smiles),measurement,setting,value
O=C(NCC(F)(F)F)c1sc(C2=NOC(c3cc(Cl)cc(Cl)c3)(C(F)(F)F)C2)cc1-c1ccccc1 (centres unmarked) [Compound 1.21],Efficacy in killing %,Dose 32 mg/kg,98%
Cc1cc(C2=NOC(c3cc(Cl)cc(Cl)c3)(C(F)(F)F)C2)sc1C(=O)Nc1nc(C(F)(F)F)cs1 (centres unmarked) [Compound 1.31],Efficacy in killing %,Dose 32 mg/kg,100%
Cc1cc(C2=NOC(c3cc(Cl)c(Cl)c(Cl)c3)(C(F)(F)F)C2)sc1C(=O)NCC(=O)NCC(F)(F)F (centres unmarked) [Compound 2.4],Efficacy in killing %,Dose 10 mg/kg,90%
Cc1cc(C2=NOC(c3cc(Cl)cc(Cl)c3)(C(F)(F)F)C2)sc1C(=O)NCC(=O)NCC#N (centres unmarked) [Compound 1.49],Efficacy in killing %,Dose 3.2 mg/kg,85%
Cc1cc(C2=NOC(c3cc(Cl)cc(Cl)c3)(C(F)(F)F)C2)sc1C(=O)Nc1cccnc1 (centres unmarked) [Compound 1.35],Efficacy in killing %,Dose 10 mg/kg,82%
Cc1cc(C2=NOC(c3cc(Cl)cc(Cl)c3)(C(F)(F)F)C2)sc1C(=O)NCC1CCCO1 (centres unmarked) [Compound 1.29],Efficacy in killing %,Dose 100 mg/kg,92%
"Cc1cc(C2=NOC(c3cc(Cl)cc(Cl)c3)(C(F)(F)F)C2)sc1C(=O)NCC(=O)NCC(F)(F)F (centres unmarked) [Compound 1.28, 5-[5-(3,5-dichloro-phenyl)-5-trifluoromethyl-4,5-dihydro-isoxazol-3-yl]-3-methyl-thiophene-2-carboxylic acid [(2,2,2-trifluoro-ethylcarbamoyl)-methyl]-amide]",Efficacy in killing %,Dose 10 mg/kg,96%
C#CCNC(=O)CNC(=O)c1sc(C2=NOC(c3cc(Cl)cc(Cl)c3)(C(F)(F)F)C2)cc1C (centres unmarked) [Compound 1.48],Efficacy in killing %,Dose 10 mg/kg,95%
Cc1cc(C2=NOC(c3cc(Cl)cc(Cl)c3)(C(F)(F)F)C2)sc1C(=O)NCc1ccncc1 (centres unmarked) [Compound 1.32],Efficacy in killing %,Dose 100 mg/kg,84%
"Cc1cc(C2=NOC(c3cc(Cl)cc(Cl)c3)(C(F)(F)F)C2)sc1C(=O)NCC(F)(F)F (centres unmarked) [Compound 1.8, 5-[5-(3,5-dichloro-phenyl)-5-trifluoromethyl-4,5-dihydro-isoxazol-3-yl]-3-methyl-thiophene-2-carboxylic acid (2,2,2-trifluoro-ethyl)-amide]",Efficacy in killing %,Dose 32 mg/kg,80%
Cc1cc(C2=NOC(c3cc(Cl)c(F)c(Cl)c3)(C(F)(F)F)C2)sc1C(=O)NCC(=O)NCC(F)(F)F (centres unmarked) [Compound 2.5],Efficacy in killing %,Dose 10 mg/kg,90%
